# Assay results reported in patent US4309559A, “Sulphonamides useful as pesticides” (FBC Limited, priority 1977, dated 1982).
# Tests used:
# Xanthomonas malvacearum = test: Bacterial growth in dextrose nutrient broth; assay type: cell-based; details: 200 ppm weight/volume; 8 days incubation at 25° C.
# Procedure: A 1% suspension/solution of the product of Example 157 in polyethylene glycol (Carbowax 400) was added to a dextrose nutrient broth to give a concentration of 1,000 parts per million (ppm) weight/volume of medium. Dilution in test tubes was then carried out to give a concentration of 200 ppm weight/volume of medium. To 8 ml quantities of broth was added 0.2 ml of a dense broth culture of the bacterium causing black arm of cotton, Xanthomonas malvacearum. After 8 days incubation at 25° C., all the broth specimens were examined for signs of bacterial growth.
# Maize (Zea mays) = test: Soil incorporation (attaclay/sand dust), growth regulatory or herbicidal effects, maize; assay type: in vivo; details: 504 h, soil incorporation 26 ppm, 21 days, 0=no effect, 100=complete kill, read-out: growth regulatory or herbicidal effect score
# In short: (§1)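 Compounds formulated as attaclay/sand dust, incorporated into John Innes I compost at 26 ppm w/v (≈11.2 kg/ha) or 130 ppm w/v (≈56 kg/ha); seeds sown in treated soil, held 21 days at 22° C, 65-85% RH, 14 h light at 13,000 lux. Visual scoring versus untreated control, 0 (no effect) to 100 (complete kill).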
# [1] = test system: Linseed (Linum usitatissimum); test: Post-emergence foliar spray, herbicidal/growth regulant response, linseed; assay type: in vivo; details: 168 h, foliar spray 11.2 kg/ha, 7 days, 0=no effect, 100=complete kill, read-out: herbicidal or growth regulant response index
# Procedure: (§2) Seeds of the plant species listed below were sown in anodised aluminium pans, 19 cm long×9.5 cm wide×5 cm deep, containing John Innes I potting compost. They were then watered and placed in a controlled environment room (22° C.; 65-85% relative humidity; 14 hours per day artificial illumination at 13,000 lux). Fourteen days after sowing, the seedlings received a foliar spray of a compound listed below, formulated as a solution in 1:1 by volume aqueous acetone. The concentration of active ingredient and volume of application were adjusted so as to be equivalent to a rate of 11.2 kg/ha in 450 liters per hectare. After seven days growth in the controlled environment room, the plants were visually assessed for any herbicidal or growth regulant response. All differences from the untreated control were scored according to an index where 0=no effect and 100=complete kill.
# (§3) The product of Example 95 was tested according to the procedure of Examples 49-55.
# [2] = test system: Wheat (Triticum aestivum); test: Pre-emergence soil surface spray, wheat; assay type: in vivo; details: soil surface spray 2.8 kg/ha, 21 days, 0=no effect, 100=complete kill
# Excerpt: (§4) Seeds of the plant species listed below were sown in John Innes I potting compost in aluminium pans, 19 cm long×9.5 cm wide×5.0 cm high, one species per pan. The soil surface was then sprayed with a compound listed below, formulated as a solution in 1:1 by volume aqueous acetone except for the compound of Example 44 which was formulated as an aqueous suspension containing 1000 parts per million of the wetting agent Lissapol NX (nonylphenol/ethylene oxide condensate). Each compound was applied at a rate of 2.8 kg of active ingredient per hectare in 450 liters of spray liquid per hectare. The pans were then watered, and placed in a controlled environment room (22° C., relative humidity 65-85%, 14 hours per day artificial illumination at 17,000 lux) for 21 days. The plants were then visually assessed for any growth regulatory or herbicidal effects. All differences from an untreated control were scored on a scale from 0-100, where 0 signifies no effect and 100 signifies complete kill.
# [3] = test system: Tomato (Lycopersicon esculentum); test: Pre-emergence soil surface spray, tomato; assay type: in vivo; details: soil surface spray 2.8 kg/ha, 21 days, 0=no effect, 100=complete kill
# Excerpt: as §4
# Barley (Hordeum vulgare) = test: Pre-emergence soil surface spray, barley; assay type: in vivo; details: soil surface spray 2.8 kg/ha, 21 days, 0=no effect, 100=complete kill
# Excerpt: as §4
# Peas (Pisum sativum) [4] = test: Soil incorporation (attaclay/sand dust), growth regulatory or herbicidal effects, peas; assay type: in vivo; details: Lathyrus oleraceus, 504 h, soil incorporation 26 ppm, 21 days, 0=no effect, 100=complete kill, read-out: growth regulatory or herbicidal effect score
# In short: as §1
# [5] = test system: Barnyardgrass (Echinochloa crus-galli); test: Pre-emergence soil surface spray, barnyardgrass; assay type: in vivo; details: soil surface spray 2.8 kg/ha, 21 days, 0=no effect, 100=complete kill
# Excerpt: as §4
# Cotton (Gossypium sp.) = test: Pre-emergence soil surface spray, cotton; assay type: in vivo; details: soil surface spray 2.8 kg/ha, 21 days, 0=no effect, 100=complete kill
# Excerpt: as §4
# Mustard (Sinapis alba) [6] = test: Post-emergence foliar spray, herbicidal/growth regulant response, mustard; assay type: in vivo; details: 168 h, foliar spray 11.2 kg/ha, 7 days, 0=no effect, 100=complete kill, read-out: herbicidal or growth regulant response index
# Procedure: as §2, §3
# Mustard (Sinapis alba) [7] = test: Pre-emergence soil surface spray, mustard; assay type: in vivo; details: soil surface spray 2.8 kg/ha, 21 days, 0=no effect, 100=complete kill
# Excerpt: as §4
# [8] = test system: Linseed (Linum usitatissimum); test: Soil incorporation (attaclay/sand dust), growth regulatory or herbicidal effects, linseed; assay type: in vivo; details: 504 h, soil incorporation 26 ppm, 21 days, 0=no effect, 100=complete kill, read-out: growth regulatory or herbicidal effect score
# In short: as §1
# [9] = test system: Ryegrass (Lolium perenne); test: Soil incorporation (attaclay/sand dust), growth regulatory or herbicidal effects, ryegrass; assay type: in vivo; details: 504 h, soil incorporation 26 ppm, 21 days, 0=no effect, 100=complete kill, read-out: growth regulatory or herbicidal effect score
# In short: as §1
# Peas (Pisum sativum) [10] = test: Post-emergence foliar spray, herbicidal/growth regulant response, peas; assay type: in vivo; details: Lathyrus oleraceus, 168 h, foliar spray 11.2 kg/ha, 7 days, 0=no effect, 100=complete kill, read-out: herbicidal or growth regulant response index
# Procedure: as §2, §3
# Oat (Avena sativa) = test: Post-emergence foliar spray, herbicidal/growth regulant response, oat; assay type: in vivo; details: 168 h, foliar spray 11.2 kg/ha, 7 days, 0=no effect, 100=complete kill, read-out: herbicidal or growth regulant response index
# Procedure: as §2, §3
# [11] = test system: Fathen (Chenopodium album); test: Pre-emergence soil surface spray, fathen; assay type: in vivo; details: soil surface spray 2.8 kg/ha, 21 days, 0=no effect, 100=complete kill
# Excerpt: as §4
# [12] = test system: Ryegrass (Lolium perenne); test: Post-emergence foliar spray, herbicidal/growth regulant response, ryegrass; assay type: in vivo; details: 168 h, foliar spray 11.2 kg/ha, 7 days, 0=no effect, 100=complete kill, read-out: herbicidal or growth regulant response index
# Procedure: as §2, §3
# [13] = test system: Sugarbeet (Beta vulgaris); test: Post-emergence foliar spray, herbicidal/growth regulant response, sugarbeet; assay type: in vivo; details: 168 h, foliar spray 11.2 kg/ha, 7 days, 0=no effect, 100=complete kill, read-out: herbicidal or growth regulant response index
# Procedure: as §2, §3
# Carrot (Daucus carota) = test: Pre-emergence soil surface spray, carrot; assay type: in vivo; details: soil surface spray 2.8 kg/ha, 21 days, 0=no effect, 100=complete kill
# Excerpt: as §4
# Oats (Avena sativa) = test: Soil incorporation (attaclay/sand dust), growth regulatory or herbicidal effects, oats; assay type: in vivo; details: 504 h, soil incorporation 26 ppm, 21 days, 0=no effect, 100=complete kill, read-out: growth regulatory or herbicidal effect score
# In short: as §1
# [14] = test system: Chickweed (Stellaria media); test: Pre-emergence soil surface spray, chickweed; assay type: in vivo; details: soil surface spray 2.8 kg/ha, 21 days, 0=no effect, 100=complete kill
# Excerpt: as §4
# [15] = test system: cucumber powdery mildew Erysiphe cichoracearum; test: Cucumber powdery mildew control on cucumber plants; assay type: in vivo; details: 2000 mg per liter; soil and leaves; 14 days; controls less than 5%
# Wild Oat (Avena fatua) = test: Pre-emergence soil surface spray, wild oat; assay type: in vivo; details: soil surface spray 2.8 kg/ha, 21 days, 0=no effect, 100=complete kill
# Excerpt: as §4
# [16] = test system: Crabgrass (Digitaria sanguinalis); test: Pre-emergence soil surface spray, crabgrass; assay type: in vivo; details: soil surface spray 2.8 kg/ha, 21 days, 0=no effect, 100=complete kill
# Excerpt: as §4
# [17] = test system: French beans (Phaseolus vulgaris); test: Post-emergence foliar spray, herbicidal/growth regulant response, French beans; assay type: in vivo; details: foliar spray 11.2 kg/ha, 7 days, 0=no effect, 100=complete kill
# Procedure: as §2, §3
# Mustard (Sinapis alba) [18] = test: Soil incorporation (attaclay/sand dust), growth regulatory or herbicidal effects, mustard; assay type: in vivo; details: 504 h, soil incorporation 26 ppm, 21 days, 0=no effect, 100=complete kill, read-out: growth regulatory or herbicidal effect score
# In short: as §1
# [19] = test system: Blackgrass (Alopecurus myosuroides); test: Pre-emergence soil surface spray, blackgrass; assay type: in vivo; details: soil surface spray 2.8 kg/ha, 21 days, 0=no effect, 100=complete kill
# Excerpt: as §4
# acetylcholinesterase = test: Standard test indicative of insecticidal activity: inhibition of acetylcholinesterase; assay type: biochemical; details: 100 micromolar concentration
# Pythium ultimum [20] = test: Cabbage seedling emergence in soil infected with Pythium ultimum; assay type: in vivo, Pythium ultimum (on cabbage, variety Flower of Spring); details: 6 days, 25° C.
# In short: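 Potting compost infested with one-week maize meal/sand Pythium ultimum culture (3 kg per 12 l soil), drenched with compound in Tween 20/water at 1500, 500, 150 or 50 ppm; 15 cabbage seeds sown per carton, 25° C, four replicates. After six days, soil-surface fungal growth and seedling emergence scored 0-8.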
# [21] = test system: vine downy mildew, Plasmopara viticola; test: Vine downy mildew control on vine plants (application to soil and leaves); assay type: in vivo; details: 2000 ppm, 12 days, controls less than 5%
# Procedure: Aqueous acetone solutions of each of the compounds listed in the Table below, containing 2000 parts per million (ppm), together with 125 ppm of a suitable wetting agent, were applied to the soil surrounding the roots and leaves of vine plants having five fully expanded leaves.
# The treated plants, together with controls treated with wetting agent alone, were inoculated 24 hours after the chemical application with an aqueous suspension of sporangia of the disease organism known as vine downy mildew, Plasmopara viticola.
# [22] = test system: cabbage seeds, variety Flower of Spring; test: Phytotoxicity of chemical alone on cabbage seed germination (chemical only soil treatment); assay type: in vivo
# Procedure: Fifteen cabbage seeds, variety Flower of Spring, were placed in a circular depression in the treated infected soil, recovered, and the whole sealed with a plastic cap. The cartons were then placed in a constant temperature room at 25° C.±1° C. Four replications per treatment were made, with one additional treatment where seeds were sown in soil which was chemically treated only, i.e. there was no infection. This latter treatment was included to measure the direct effect of the chemical on the germination of the seed. and are given in the following table. Any phytotoxicity induced by the chemical alone is deduced from the chemical only soil treatment.
# Pythium ultimum [23] = test: Fungal growth on the surface of soil infected with damping-off disease organism; assay type: in vivo; details: 6 days, 25° C.
# [24] = 100 ppm, 0-8 scale (Examples 233, 234)
# [25] = 300 ppm, 0-8 scale (Examples 233, 234, 268)
Structure (SMILES),plant injury at 26 µg/mL (Maize (Zea mays)) [%],pest or weed control at 11200 g/ha [1] [%],growth regulatory or herbicidal effect score [2],growth regulatory or herbicidal effect score [3],growth regulatory or herbicidal effect score (Barley (Hordeum vulgare)),pest or weed control at 26 µg/mL (Peas (Pisum sativum) [4]) [%],growth regulatory or herbicidal effect score [5],growth regulatory or herbicidal effect score (Cotton (Gossypium sp.)),pest or weed control at 11200 g/ha (Mustard (Sinapis alba) [6]) [%],growth regulatory or herbicidal effect score (Mustard (Sinapis alba) [7]),pest or weed control at 26 µg/mL [8] [%],pest or weed control at 26 µg/mL [9] [%],pest or weed control at 11200 g/ha (Peas (Pisum sativum) [10]) [%],plant injury at 11200 g/ha (Oat (Avena sativa)) [%],growth regulatory or herbicidal effect score [11],pest or weed control at 11200 g/ha [12] [%],plant injury at 11200 g/ha [13] [%],growth regulatory or herbicidal effect score (Carrot (Daucus carota)),plant injury at 26 µg/mL (Oats (Avena sativa)) [%],growth regulatory or herbicidal effect score [14],other results
CS(=O)(=O)N(CC(N)=S)c1cccc(Cl)c1Cl [Example 157],–,–,–,–,–,–,–,–,–,–,–,–,–,–,–,–,–,–,–,–,bacterial growth (Xanthomonas malvacearum): No growth occurred
CCOC(=O)C(C)N(c1c(C)cccc1C)S(C)(=O)=O (stereo not drawn) [Example 15],50,90,0,20,0,0,40,0,90,10,70,100,5,5,100,10,90,0,20,30,"fungus control, cucumber powdery mildew [15]: 82%; growth regulatory or herbicidal effect score (Wild Oat (Avena fatua)): 5; growth regulatory or herbicidal effect score [16]: 100; herbicidal or growth regulant response index [17]: 70; pest or weed control at 26 µg/mL (Mustard (Sinapis alba) [18]): 100%; growth regulatory or herbicidal effect score [19]: 20"
"CNC(=O)ON=C(C)CN(c1c(C)cccc1C)S(C)(=O)=O [Example 248, N-[2-(methylcarbamoyloxyimino)propyl]-2',6'-dimethylmethanesulphonanilide]",–,–,–,–,–,–,–,–,–,–,–,–,–,–,–,–,–,–,–,–,inhibition of acetylcholinesterase (acetylcholinesterase): 30%
"COC(C)(CN(c1c(C)cccc1Cl)S(C)(=O)=O)OC [Example 222, N-(2,2-dimethoxypropyl)-2'-chloro-6'-methyl-methanesulphonanilide]",–,–,–,–,–,–,–,–,–,–,–,–,–,–,–,–,–,–,–,–,Germination Score (Pythium ultimum [20]; [24]): 1 (20-34% inhibition); Germination Score (Pythium ultimum [20]; [25]): 1 (20-34% inhibition); % Control Vine Downing Mildew [21]: 94%; Phytotoxicity Score ([22]; 100 ppm): 0; Phytotoxicity Score ([22]; 300 ppm): 0; Mycelial Control Score (Pythium ultimum [23]; [24]): 3 (45-54% inhibition); Mycelial Control Score (Pythium ultimum [23]; [25]): 4 (55- 64% inhibition)
CCOC(=O)C(C)N(c1c(C)cccc1Cl)S(C)(=O)=O (stereo not drawn) [Example 22],50,30,0,40,0,0,0,0,80,90,100,90,5,5,100,5,80,0,50,50,growth regulatory or herbicidal effect score (Wild Oat (Avena fatua)): 0; growth regulatory or herbicidal effect score [16]: 90; herbicidal or growth regulant response index [17]: 80; pest or weed control at 26 µg/mL (Mustard (Sinapis alba) [18]): 100%; growth regulatory or herbicidal effect score [19]: 40
